Measured values as given in PubChem BioAssay AID2060616 (Molecular Pharmacology Branch, DTP, NCI, 2025).
“And” between values parts separate entries of the source, which are not always exact repeats. Equal values may be shown once. One block for each compound: values may come before it.

Tested on: 377384-186-R-J1-PDC complex spheroid viability
Experiment: Anticancer human tumor 377384-186-R-J1-PDC patient-derived pancreatic carcinoma cell line growth inhibition [CLK]
Conditions: for viability, T/C: stronger effect = lower value
Outline: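 Patient-derived tumor cells grown as complex spheroids with HUVEC endothelial cells and mesenchymal stem cells, treated with drug combinations. Concentrations descend in half-log steps from near clinical Cmax, or from 10 microM if Cmax unknown.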

[1] = curve of first compound, second compound 0.0316 µM
[2] = curve of first compound, second compound 0.1 µM
[3] = curve of first compound, second compound 0.316 µM
[4] = curve of first compound, second compound 1 µM
[5] = curve of first compound, second compound 3.16 µM
[6] = curve of first compound, second compound 10 µM
[7] = second compound 0.0316 µM, first compound 0.0316 µM
[8] = second compound 0.0316 µM, first compound 0.1 µM
[9] = second compound 0.0316 µM, first compound 0.316 µM
[10] = second compound 0.0316 µM, first compound 1 µM
[11] = second compound 0.0316 µM, first compound 3.16 µM
[12] = second compound 0.0316 µM, first compound 10 µM
[13] = second compound 0.1 µM, first compound 0.0316 µM
[14] = second compound 0.1 µM, first compound 0.1 µM
[15] = second compound 0.1 µM, first compound 0.316 µM
[16] = second compound 0.1 µM, first compound 1 µM
[17] = second compound 0.1 µM, first compound 3.16 µM
[18] = second compound 0.1 µM, first compound 10 µM
[19] = second compound 0.316 µM, first compound 0.0316 µM
[20] = second compound 0.316 µM, first compound 0.1 µM
[21] = second compound 0.316 µM, first compound 0.316 µM
[22] = second compound 0.316 µM, first compound 1 µM
[23] = second compound 0.316 µM, first compound 3.16 µM
[24] = second compound 0.316 µM, first compound 10 µM
[25] = second compound 1 µM, first compound 0.0316 µM
[26] = second compound 1 µM, first compound 0.1 µM
[27] = second compound 1 µM, first compound 0.316 µM
[28] = second compound 1 µM, first compound 1 µM
[29] = second compound 1 µM, first compound 3.16 µM
[30] = second compound 1 µM, first compound 10 µM
[31] = second compound 3.16 µM, first compound 0.0316 µM
[32] = second compound 3.16 µM, first compound 0.1 µM
[33] = second compound 3.16 µM, first compound 0.316 µM
[34] = second compound 3.16 µM, first compound 1 µM
[35] = second compound 3.16 µM, first compound 3.16 µM
[36] = second compound 3.16 µM, first compound 10 µM
[37] = second compound 10 µM, first compound 0.0316 µM
[38] = second compound 10 µM, first compound 0.1 µM
[39] = second compound 10 µM, first compound 0.316 µM
[40] = second compound 10 µM, first compound 1 µM
[41] = second compound 10 µM, first compound 3.16 µM
[42] = second compound 10 µM, first compound 10 µM
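Also: spheroids exposed to agents for 7 days before reading.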
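For viability, T/C in this document: luminescence signal used as a stand-in for viable cells.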

SMILES: NC(=O)C(=Cn1cnc(-c2cc(C(F)(F)F)cc(C(F)(F)F)c2)n1)c1cncnc1 + CNC(=O)c1ccc(Nc2nc(OC3CCCC3)c3c(-c4ccc5nc(C)oc5c4)c[nH]c3n2)c(OC)c1
IC50 [1]: 52.6 nM
IC50 [2]: 12.3 nM
IC50 [3]: < 9.49 nM
IC50 [4]: < 9.49 nM
IC50 [5]: < 9.49 nM
IC50 [6]: < 9.49 nM
viability, T/C (second compound 0.0316 µM, first compound 0.00949 µM): 97.1%
viability, T/C (second compound 0.0316 µM, first compound 0.03 µM): 59.2%
viability, T/C (second compound 0.0316 µM, first compound 0.0949 µM): 40.4%
viability, T/C (second compound 0.0316 µM, first compound 0.3 µM): 21.2%
viability, T/C (second compound 0.0316 µM, first compound 0.949 µM): 5.59%
viability, T/C (second compound 0.0316 µM, first compound 3 µM): 2.3%
viability, T/C (second compound 0.1 µM, first compound 0.00949 µM): 52.9%
viability, T/C (second compound 0.1 µM, first compound 0.03 µM): 39.7%
viability, T/C (second compound 0.1 µM, first compound 0.0949 µM): 25.5%
viability, T/C (second compound 0.1 µM, first compound 0.3 µM): 16.1%
viability, T/C (second compound 0.1 µM, first compound 0.949 µM): 3.56%
viability, T/C (second compound 0.1 µM, first compound 3 µM): 1.95%
viability, T/C (second compound 0.316 µM, first compound 0.00949 µM): 19.2%
viability, T/C (second compound 0.316 µM, first compound 0.03 µM): 17.7%
viability, T/C (second compound 0.316 µM, first compound 0.0949 µM): 17.1%
viability, T/C (second compound 0.316 µM, first compound 0.3 µM): 8.59%
viability, T/C (second compound 0.316 µM, first compound 0.949 µM): 2.04%
viability, T/C (second compound 0.316 µM, first compound 3 µM): 2.27%
viability, T/C (second compound 1 µM, first compound 0.00949 µM): 18.9%
viability, T/C (second compound 1 µM, first compound 0.03 µM): 20.9%
viability, T/C (second compound 1 µM, first compound 0.0949 µM): 16.2%
viability, T/C (second compound 1 µM, first compound 0.3 µM): 7.4%
viability, T/C (second compound 1 µM, first compound 0.949 µM): 1.54%
viability, T/C (second compound 1 µM, first compound 3 µM): 0.93%
viability, T/C (second compound 3.16 µM, first compound 0.00949 µM): 18.7%
viability, T/C (second compound 3.16 µM, first compound 0.03 µM): 18.7%
viability, T/C (second compound 3.16 µM, first compound 0.0949 µM): 15.5%
viability, T/C (second compound 3.16 µM, first compound 0.3 µM): 6.58%
viability, T/C (second compound 3.16 µM, first compound 0.949 µM): 1.89%
viability, T/C (second compound 3.16 µM, first compound 3 µM): 1.09%
viability, T/C (second compound 10 µM, first compound 0.00949 µM): 21.7%
viability, T/C (second compound 10 µM, first compound 0.03 µM): 17.9%
viability, T/C (second compound 10 µM, first compound 0.0949 µM): 12.8%
viability, T/C (second compound 10 µM, first compound 0.3 µM): 6.06%
viability, T/C (second compound 10 µM, first compound 0.949 µM): 1.42%
viability, T/C (second compound 10 µM, first compound 3 µM): 1.91%

SMILES: CC(Nc1ccc2c(c1)OCCn1cc(N3C(=O)OCC3C(F)F)nc1-2)C(N)=O (stereo not given) + CN1CCN(c2cc(C(=O)Nc3cc4cc(-c5cnn(C)c5)ccc4cn3)ccn2)CC1
IC50 [1]: 5170 nM
IC50 [2]: 1460 nM
IC50 [3]: < 31.6 nM
IC50 [4]: < 31.6 nM
IC50 [5]: < 31.6 nM
IC50 [6]: < 31.6 nM
viability, T/C [7]: 85.8%
viability, T/C [8]: 83.1%
viability, T/C [9]: 72.2%
viability, T/C [10]: 69.4%
viability, T/C [11]: 53.4%
viability, T/C [12]: 43.4%
viability, T/C [13]: 90%
viability, T/C [14]: 79.3%
viability, T/C [15]: 50.6%
viability, T/C [16]: 57.4%
viability, T/C [17]: 50.5%
viability, T/C [18]: 39.4%
viability, T/C [19]: 23.5%
viability, T/C [20]: 23.6%
viability, T/C [21]: 18.5%
viability, T/C [22]: 19.8%
viability, T/C [23]: 18.3%
viability, T/C [24]: 18.4%
viability, T/C [25]: 2.08%
viability, T/C [26]: 1.88%
viability, T/C [27]: 2.17%
viability, T/C [28]: 1.6%
viability, T/C [29]: 1.66%
viability, T/C [30]: 2.21%
viability, T/C [31]: 0.29%
viability, T/C [32]: 0.96%
viability, T/C [33]: 0.62%
viability, T/C [34]: 0.3%
viability, T/C [35]: 0.47%
viability, T/C [36]: 0.64%
viability, T/C [37]: 0.32%
viability, T/C [38]: 1.36%
viability, T/C [39]: 0.49%
viability, T/C [40]: 0.37%
viability, T/C [41]: 0.69%
viability, T/C [42]: 0.37%

SMILES: CC1(C)CCC(CN2CCN(c3ccc(C(=O)NS(=O)(=O)c4ccc(NCC5CCOCC5)c([N+](=O)[O-])c4)c(Oc4cnc5[nH]ccc5c4)c3)CC2)=C(c2ccc(Cl)cc2)C1 + CN1CCN(c2cc(C(=O)Nc3cc4cc(-c5cnn(C)c5)ccc4cn3)ccn2)CC1
IC50 [1]: 5530 nM
IC50 [2]: 5250 nM
IC50 [3]: < 31.6 nM
IC50 [4]: < 31.6 nM
IC50 [5]: < 31.6 nM
IC50 [6]: < 31.6 nM
viability, T/C [7]: 96%
viability, T/C [8]: 97.6%
viability, T/C [9]: 102%
viability, T/C [10]: 115%
viability, T/C [11]: 89.7%
viability, T/C [12]: 8.02%
viability, T/C [13]: 95.7%
viability, T/C [14]: 101%
viability, T/C [15]: 89.8%
viability, T/C [16]: 92.7%
viability, T/C [17]: 83.8%
viability, T/C [18]: 7.17%
viability, T/C [19]: 24.6%
viability, T/C [20]: 27.9%
viability, T/C [21]: 27.9%
viability, T/C [22]: 21.6%
viability, T/C [23]: 20.4%
viability, T/C [24]: 3.98%
viability, T/C [25]: 1.15%
viability, T/C [26]: 1.09%
viability, T/C [27]: 1.14%
viability, T/C [28]: 1.04%
viability, T/C [29]: 1.22%
viability, T/C [30]: 1.79%
viability, T/C [31]: 0.38%
viability, T/C [32]: 0.8%
viability, T/C [33]: 0.43%
viability, T/C [34]: 0.54%
viability, T/C [35]: 1.02%
viability, T/C [36]: 1.42%
viability, T/C [37]: 0.41%
viability, T/C [38]: 0.46%
viability, T/C [39]: 0.55%
viability, T/C [40]: 0.59%
viability, T/C [41]: 0.61%
viability, T/C [42]: 0.95%

More lines, main results first:

IC50 [1]: < 31.6 nM
IC50 [2]: < 31.6 nM
IC50 [3]: < 31.6 nM
IC50 [4]: < 31.6 nM
IC50 [5]: < 31.6 nM
IC50 [6]: < 31.6 nM
SMILES: C#Cc1c(F)ccc2cc(O)cc(-c3ncc4c(N5CC6CCC(C5)N6)nc(OCC56CCCN5CC(F)C6)nc4c3F)c12 (stereo not given) + CNC(=O)c1ccc(Nc2nc(OC3CCCC3)c3c(-c4ccc5nc(C)oc5c4)c[nH]c3n2)c(OC)c1
viability, T/C [7]: 23.6%
viability, T/C [8]: 11.7%
viability, T/C [9]: 5.37%
viability, T/C [10]: 4.27%
viability, T/C [11]: 2.38%
viability, T/C [12]: 1.98%
viability, T/C [13]: 22%
viability, T/C [14]: 8.53%
viability, T/C [15]: 5.17%
viability, T/C [16]: 2.73%
viability, T/C [17]: 2.7%
viability, T/C [18]: 2.19%
viability, T/C [19]: 7.28%
viability, T/C [20]: 4.75%
viability, T/C [21]: 3.08%
viability, T/C [22]: 2.69%
viability, T/C [23]: 2.74%
viability, T/C [24]: 2.17%
viability, T/C [25]: 6.44%
viability, T/C [26]: 3.72%
viability, T/C [27]: 2.21%
viability, T/C [28]: 1.64%
viability, T/C [29]: 1.66%
viability, T/C [30]: 1.12%
viability, T/C [31]: 4.56%
viability, T/C [32]: 3.31%
viability, T/C [33]: 2.47%
viability, T/C [34]: 2.25%
viability, T/C [35]: 1.64%
viability, T/C [36]: 1.59%
viability, T/C [37]: 4.62%
viability, T/C [38]: 2.7%
viability, T/C [39]: 2.29%
viability, T/C [40]: 1.95%
viability, T/C [41]: 1.6%
viability, T/C [42]: 2.24%

IC50 (curve of compound): 2660 nM and 2050 nM
SMILES: CC1COCCN1c1cc(C2(S(C)(=N)=O)CC2)nc(-c2ccnc3[nH]ccc23)n1 (stereo not given)
viability, T/C (compound 0.0316 µM): 85.7% and 90.6%
viability, T/C (compound 0.1 µM): 108% and 109%
viability, T/C (compound 0.316 µM): 83.9% and 91.1%
viability, T/C (compound 1 µM): 82.9% and 74.7%
viability, T/C (compound 3.16 µM): 44% and 35.3%
viability, T/C (compound 10 µM): 17.6% and 14.9%
